Data published in ChEMBL document CHEMBL5131547, “Novel Halomethylketone Azadipeptides for Treating COVID-19” (ACS Med Chem Lett, 2022).

Molecular target: Replicase polyprotein 1ab (Severe acute respiratory syndrome coronavirus 2, UniProt P0DTD1)
Assay: Inhibition of recombinant SARS-CoV-2 3CLpro expressed in Escherichia coli BL21 DE3 using FAM-KTSAVLQSGFRKMEK-TAMRA fluorogenic peptide as substrate preincubated for 1 hr followed by substrate addition measured after 30 mins by FRET assay

Row | Compound | IC50 [nM]
1 | CC(C)C[C@H](NC(=O)OCc1ccccc1)C(=O)NN(CC1CCCNC1=O)C(=O)CCl (some centres not stated) | 5
2 | CC(C)C[C@H](NC(=O)c1cc2ccccc2[nH]1)C(=O)NN(C[C@H]1CCNC1=O)C(=O)CCl | 3
